The text below walks through data of ChEMBL document CHEMBL1148906, “Two pyranocoumarins from the seeds of Calophyllum polyanthum” (2004).

The structures appear in SMILES notation. Some results are limits rather than exact numbers.

For the experiment, the system named is Human alphaherpesvirus 2. Briefly: Antiherpetic activity against HSV2 in african green monkey Vero cells assessed as inhibition of virus-induced cytopathic effect. To be noted: Human alphaherpesvirus 2, Vero. It counts as functional.

Turning to `CC(C)=CCc1c(O)c2c(c3c1OC(=O)C[C@H]3c1ccccc1)O[C@@H](C)[C@@H](C)C2=O` [CALOPOLYANOLIDE D], the GI50 is greater than 250 µg/mL.

For `CC(C)=CCc1c(O)c2c(c3c1OC(=O)C[C@H]3c1ccccc1)O[C@@H](C)[C@H](C)C2=O` [CALOPOLYANOLIDES C], the GI50 is greater than 250 µg/mL.

Broadly, the GI50 is the concentration at which growth is held to half of that of the control.
